Source: PubChem BioAssay AID248 (DTP/NCI, 2004)
Several values for one entry are separate records, joined by “and”; a condition that tells them apart may be missing. Identical values can stand only once. Toxic doses and inconclusive results are not listed. Rule as the data show it: active = T/C of 150% or more; inactive = T/C below 125%.

Tested on: L1210 leukemia ip in BDF1 mice, survival T/C
Experiment: NCI In Vivo Anticancer Drug Screen. Data for tumor model L1210 Leukemia (intraperitoneal) in B6D2F1 (BDF1) mice
Settings: endpoint: mean survival time, higher = longer survival
In short: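 Transplanted-tumor mice were given test agent; controls received vehicle only. Survival readings from the two groups were divided (treated over control).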

[1] = dose: 100.0 mg/kg/injection, schedule: Q01DX009 (ip), vehicle: Klucel (hydroxypropylcellulose) (HPC)
[2] = dose: 200.0 mg/kg/injection, schedule: Q01DX009 (ip), vehicle: Klucel (hydroxypropylcellulose) (HPC)
[3] = dose: 400.0 mg/kg/injection, schedule: Q01DX009 (ip), vehicle: Klucel (hydroxypropylcellulose) (HPC)
[4] = dose: 100.0 mg/kg/injection, schedule: Q01DX009 (ip), vehicle: saline with Tween-80
[5] = dose: 200.0 mg/kg/injection, schedule: Q01DX009 (ip), vehicle: saline with Tween-80
[6] = dose: 400.0 mg/kg/injection, schedule: Q01DX009 (ip), vehicle: saline with Tween-80
[7] = dose: 100.0 mg/kg/injection, schedule: Q04DX003 (ip), vehicle: saline
[8] = dose: 200.0 mg/kg/injection, schedule: Q04DX003 (ip), vehicle: saline
[9] = dose: 400.0 mg/kg/injection, schedule: Q04DX003 (ip), vehicle: saline
[10] = dose: 50.0 mg/kg/injection, schedule: Q04DX002 (ip), vehicle: saline with Tween-80

Measured: T/C

CC1CCCC(C)N1C(=O)Nc1cccc(F)c1 (stereo unspecified)
inactive: [1] 99 % of control | [2] 101 % of control | [3] 94 % of control

O=C(O)CN1C(=O)CN=C(c2ccccn2)c2cc(Cl)ccc21
inactive: [1] 99 % of control | dose: 100.0 mg/kg/injection, schedule: Q04DX003 (ip), vehicle: Klucel (hydroxypropylcellulose) (HPC) 100 % of control | [2] 100 % of control | dose: 200.0 mg/kg/injection, schedule: Q04DX003 (ip), vehicle: Klucel (hydroxypropylcellulose) (HPC) 100 % of control | [3] 97 % of control | dose: 400.0 mg/kg/injection, schedule: Q04DX003 (ip), vehicle: Klucel (hydroxypropylcellulose) (HPC) 97 % of control

COC(=O)C(C)NC(=O)Cc1ccccc1 (stereo unspecified)
inactive: [4] 94 % of control | dose: 100.0 mg/kg/injection, schedule: Q04DX003 (ip), vehicle: saline with Tween-80 98 % of control | [5] 92 % of control | dose: 200.0 mg/kg/injection, schedule: Q04DX003 (ip), vehicle: saline with Tween-80 101 % of control | [6] 92 % of control | dose: 400.0 mg/kg/injection, schedule: Q04DX003 (ip), vehicle: saline with Tween-80 97 % of control

CC(=O)OC1c2sccc2Cc2ccsc21
inactive: dose: 100.0 mg/kg/injection, schedule: Q01DX001 (ip), vehicle: saline with Tween-80 91 % of control | dose: 200.0 mg/kg/injection, schedule: Q01DX001 (ip), vehicle: saline with Tween-80 105 % of control

OC(CCl)COCC#Cc1ccccc1 (stereo unspecified)
inactive: dose: 100.0 mg/kg/injection, schedule: Q01DX009 (ip), vehicle: saline sonified 93 % of control | dose: 100.0 mg/kg/injection, schedule: Q04DX003 (ip), vehicle: saline sonified 101 % of control | dose: 200.0 mg/kg/injection, schedule: Q01DX009 (ip), vehicle: saline sonified 96 % of control | dose: 200.0 mg/kg/injection, schedule: Q04DX003 (ip), vehicle: saline sonified 93 % of control | dose: 400.0 mg/kg/injection, schedule: Q01DX009 (ip), vehicle: saline sonified 93 % of control | dose: 400.0 mg/kg/injection, schedule: Q04DX003 (ip), vehicle: saline sonified 92 % of control

O=S(=O)(SSS(=O)(=O)c1ccc(Cl)cc1)c1ccc(Cl)cc1
inactive: [7] 90 % of control | [8] 90 % of control | [9] 90 % of control

CC1=CC(=O)C(C(O)(C(F)(F)Cl)C(F)(F)Cl)C(C)(C)C1 (stereo unspecified) (tested in a mixture with another compound)
inactive: [4] 98 % of control | [7] 93 % of control | [5] 102 % of control | [8] 98 % of control | [9] 104 % of control

C[C@]12CC[C@@H]3c4ccc(Oc5nc(N6CC6)nc(N6CC6)n5)cc4CC[C@H]3[C@@H]1CCC2=O
inactive: dose: 25.0 mg/kg/injection, schedule: Q01DX009 (ip), vehicle: steriod suspending solution 101 % of control | dose: 25.0 mg/kg/injection, schedule: Q01DX009 (oral), vehicle: carboxymethylcellulose (CMC) 106 % of control | dose: 25.0 mg/kg/injection, schedule: Q04DX003 (sc), vehicle: steriod suspending solution 106 % of control | dose: 50.0 mg/kg/injection, schedule: Q01DX009 (oral), vehicle: carboxymethylcellulose (CMC) 101 % of control | dose: 50.0 mg/kg/injection, schedule: Q04DX003 (sc), vehicle: steriod suspending solution 98 % of control | dose: 100.0 mg/kg/injection, schedule: Q01DX001 (sc), vehicle: steriod suspending solution 105 % of control | dose: 100.0 mg/kg/injection, schedule: Q01DX009 (oral), vehicle: carboxymethylcellulose (CMC) 104 % of control | dose: 100.0 mg/kg/injection, schedule: Q04DX003 (sc), vehicle: steriod suspending solution 101 % of control | dose: 200.0 mg/kg/injection, schedule: Q01DX001 (sc), vehicle: steriod suspending solution 118 % of control | dose: 400.0 mg/kg/injection, schedule: Q01DX001 (sc), vehicle: steriod suspending solution 107 % of control

C=CC(=O)N1CCN(C(=O)C=C)CC1 (tested in a mixture with another compound)
inactive: dose: 0.04 mg/kg/injection, schedule: Q04DX002 (ip), vehicle: saline 101 % of control | dose: 0.09 mg/kg/injection, schedule: Q04DX002 (ip), vehicle: saline 97 % of control | dose: 0.18 mg/kg/injection, schedule: Q04DX002 (ip), vehicle: saline 97 % of control and 100 % of control | dose: 0.75 mg/kg/injection, schedule: Q04DX002 (ip), vehicle: saline 109 % of control | dose: 1.5 mg/kg/injection, schedule: Q04DX002 (ip), vehicle: saline 103 % of control | dose: 3.12 mg/kg/injection, schedule: Q04DX002 (ip), vehicle: saline 106 % of control | dose: 6.25 mg/kg/injection, schedule: Q04DX002 (ip), vehicle: saline + alcohol 97 % of control | dose: 6.25 mg/kg/injection, schedule: Q04DX002 (ip), vehicle: saline 103 % of control | dose: 12.5 mg/kg/injection, schedule: Q04DX002 (ip), vehicle: saline + alcohol 101 % of control | dose: 12.5 mg/kg/injection, schedule: Q04DX002 (ip), vehicle: saline with Tween-80 94 % of control | dose: 12.5 mg/kg/injection, schedule: Q04DX002 (ip), vehicle: saline 103 % of control | dose: 25.0 mg/kg/injection, schedule: Q04DX002 (ip), vehicle: saline + alcohol 104 % of control and 89 % of control | dose: 25.0 mg/kg/injection, schedule: Q04DX002 (ip), vehicle: saline with Tween-80 109 % of control | dose: 50.0 mg/kg/injection, schedule: Q04DX002 (ip), vehicle: saline + alcohol 92 % of control | [10] 91 % of control | dose: 50.0 mg/kg/injection, schedule: Q04DX002 (ip), vehicle: saline 96 % of control and 105 % of control | dose: 100.0 mg/kg/injection, schedule: Q04DX002 (ip), vehicle: saline + alcohol 100 % of control | dose: 100.0 mg/kg/injection, schedule: Q04DX002 (ip), vehicle: saline 100 % of control and 97 % of control and 105 % of control | dose: 200.0 mg/kg/injection, schedule: Q04DX002 (ip), vehicle: saline 97 % of control and 90 % of control | dose: 400.0 mg/kg/injection, schedule: Q04DX002 (ip), vehicle: saline 90 % of control

N#CC(CC(=O)c1ccc(Cl)cc1)c1ccccc1 (stereo unspecified)
inactive: [4] 91 % of control | [5] 96 % of control | [6] 91 % of control

NC(=S)N1CCCCC1
inactive: dose: 100.0 mg/kg/injection, schedule: Q01DX001 (ip), vehicle: saline 98 % of control | dose: 200.0 mg/kg/injection, schedule: Q01DX001 (ip), vehicle: saline 96 % of control

O=C1CS/C(=N/N=C/c2ccccc2)N1
inactive: dose: 50.0 mg/kg/injection, schedule: Q01DX009 (ip), vehicle: saline with Tween-80 104 % of control | [4] 91 % of control | [5] 95 % of control

N#CC1(C(=O)c2ccccc2)C=Cc2ccccc2N1C(=O)c1ccccc1 (stereo unspecified)
inactive: dose: 100.0 mg/kg/injection, schedule: Q01DX001 (ip), vehicle: steriod suspending solution 87 % of control | dose: 200.0 mg/kg/injection, schedule: Q01DX001 (ip), vehicle: steriod suspending solution 90 % of control | dose: 400.0 mg/kg/injection, schedule: Q01DX001 (ip), vehicle: steriod suspending solution 92 % of control

Brc1ccc2c(c1)-c1cc(Br)ccc1C2
inactive: [10] 95 % of control | dose: 100.0 mg/kg/injection, schedule: Q04DX002 (ip), vehicle: saline with Tween-80 100 % of control | dose: 200.0 mg/kg/injection, schedule: Q04DX002 (ip), vehicle: saline with Tween-80 103 % of control | dose: 400.0 mg/kg/injection, schedule: Q04DX002 (ip), vehicle: saline with Tween-80 95 % of control
